Results reported in EP4678638A1, “NEW E3 UBIQUITIN LIGASE LIGAND, PROTEIN DEGRADATION AGENT AND USE THEREOF” (priority 2023, dated 2024).

Biological target: T1, human Cereblon WT GST-tagged protein (Homo sapiens, UniProt Q96SW2)
T1 construct: purchased CISBIO 64BDCRBNPEH
Test: CRBN binding, HTRF (CEREBLON BINDING kit)
Settings: HTRF; for inhibition at 0.5 µM: read-out: Inhibition rate (%) at 0.5µM; for inhibition at 2 µM: read-out: Inhibition rate (%) at 2 µM
Procedure: The CEREBLON BINDING kits (specification: 10,000 tests; product number: Catalog # 64BDCRBNPEH; CISBIO company) was used to determine the CRBN binding ability of the compounds to be tested through a HTRF method (homogeneous time-resolved fluorescence). The specific methods are as follows: • 1. […] Then, 2.5 µL of human Cereblon WT GST-tagged protein solution was added to each well. Finally, 5 µL of the thoroughly mixed Thalidomide-Re reagent and GST Eu antibody working solution were added to each of the aforementioned wells. […] The blank control wells were sequentially added with 2.5 µL of diluent #9 (1X) solution, 2.5 µL of binding buffer, and 5 µL of thoroughly mixed Thalidomide-Re reagent and GST Eu antibody working solution. • 4. After sealing and incubating the solutions in the aforementioned wells at room temperature for 3 hours, the […] at emission wavelengths of 620 nm and 665 nm were detected by the HTRF method using a Spark microplate reader (V3.1 SP1).

[1] = Table II-2, CRBN binding screening, at 0.5µM
[2] = Table II-2, CRBN binding screening, at 2 µM

T1 sequence (Q96SW2 whole entry): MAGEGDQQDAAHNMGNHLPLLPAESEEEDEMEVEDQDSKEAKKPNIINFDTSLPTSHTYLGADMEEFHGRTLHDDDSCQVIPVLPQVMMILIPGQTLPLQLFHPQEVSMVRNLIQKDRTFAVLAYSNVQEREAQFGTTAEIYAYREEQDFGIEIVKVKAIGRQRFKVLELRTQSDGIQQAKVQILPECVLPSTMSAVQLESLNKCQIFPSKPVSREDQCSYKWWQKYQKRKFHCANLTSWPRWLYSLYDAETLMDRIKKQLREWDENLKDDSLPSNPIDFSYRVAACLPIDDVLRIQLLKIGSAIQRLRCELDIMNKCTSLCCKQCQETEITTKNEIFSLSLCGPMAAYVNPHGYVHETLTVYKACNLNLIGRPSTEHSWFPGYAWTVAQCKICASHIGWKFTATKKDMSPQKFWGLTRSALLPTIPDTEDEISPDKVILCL

Row | SMILES | inhibition at 0.5 µM [1] | inhibition at 2 µM [2] | IC50 (Table II-1, CRBN binding) | Inhibition rate (%) at 0.5µM [1] | Inhibition rate (%) at 2 µM [2]
1 | Cc1ccc(C(=O)Nc2ccc(N3CCC(N(C)Cc4ccc(C5CCC(=O)NC5=O)c(F)c4)CC3)c(C(F)(F)F)c2)cc1C#Cc1cnc2cccnn12 (centres unmarked) [GT-04107, N-(4-(4-((4-(2,6-dioxopiperidin-3-yl)-3-fluorobenzyl)(methyl)amino)piperidin-1-yl)-3-(trifluoromethyl)phenyl)-3-(imidazo[1,2-b]pyridazin-3-ylethynyl)-4-methylbenzamide] | 30 to 40% | 80 to 100% | – | – | –
2 | CNC(=O)c1ccccc1Nc1cc(Nc2cc(C)c(C3CCN(Cc4ccc(N5CCC(=O)NC5=O)cc4)CC3)cc2OC(C)C)ncc1C(F)(F)F [GT-07667, 2-((2-((4-(1-(4-(2,4-dioxotetrahydropyrimidin-1(2H)-yl)benzyl)piperidin-4-yl)-2-isopropoxy-5-methylphenyl)amino)-5-(trifluoromethyl)pyridin-4-yl)amino)-N-methylbenzamide] | 20 to 30% | 53 to 60% | – | – | –
3 | O=C1CCN(c2cnc(CN3CCN(c4ccc(-c5cc(F)c6c(c5)C(=O)N(C(C(=O)Nc5nccs5)c5ncn7c5CCC7)C6)cc4)CC3)cn2)C(=O)N1 (centres unmarked) [GT-07761, 2-(6,7-dihydro-5H-pyrrolo[1,2-c]imidazol-1-yl)-2-(6-(4-(4-((5-(2,4-dioxotetrahydropyrimidin-1(2H)-yl)pyrazin-2-yl)methyl)piperazin-1-yl)phenyl)-4-fluoro-1-oxoisoindolin-2-yl)-N-(thiazol-2-yl)acetamide] | 20 to 30% | 53 to 60% | – | – | –
4 | CNC(=O)c1ccccc1Nc1cc(Nc2cc(C)c(C3CCN(Cc4cccc(N5CCC(=O)NC5=O)c4)CC3)cc2OC(C)C)ncc1C(F)(F)F [GT-07668, 2-((2-((4-(1-(3-(2,4-dioxotetrahydropyrimidin-1(2H)-yl)benzyl)piperidin-4-yl)-2-isopropoxy-5-methylphenyl)amino)-5-(trifluoromethyl)pyridin-4-yl)amino)-N-methylbenzamide] | – | – | – | a2 (20% < a2 ≤ 30%) | a5 (53% < a5 ≤ 60%)
5 | CC(C)(O)c1cc2nc(C3CCN(Cc4cc(C5CCC(=O)NC5=O)cnc4F)CC3)oc2cc1NC(=O)c1cccc(C(F)(F)F)n1 (centres unmarked) [GT-07629, N-(2-(1-((5-(2,6-dioxopiperidin-3-yl)-2-fluoropyridin-3-yl)methyl)piperidin-4-yl)-5-(2-hydroxypropan-2-yl)benzo[d]oxazol-6-yl)-6-(trifluoromethyl)picolinamide] | 60 to 80% | 80 to 100% | – | – | –
6 | CC(C)(O)c1cc2nc(C3CCN(Cc4cc(C5CCC(=O)NC5=O)cnc4F)CC3)sc2cc1NC(=O)c1cccc(C(F)(F)F)n1 (centres unmarked) [GT-07621, N-(2-(1-((5-(2,6-dioxopiperidin-3-yl)-2-fluoropyridin-3-yl)methyl)piperidin-4-yl)-5-(2-hydroxypropan-2-yl)benzo[d]thiazol-6-yl)-6-(trifluoromethyl)picolinamide] | 53 to 60% | 60 to 80% | – | – | –
7 | CNC(=O)c1ccccc1Nc1cc(Nc2cc(C)c(C3CCN(Cc4ccc(N5CCC(=O)NC5=O)cn4)CC3)cc2OC(C)C)ncc1C(F)(F)F [GT-07669, 2-((2-((4-(1-((5-(2,4-dioxotetrahydropyrimidin-1(2H)-yl)pyridin-2-yl)methyl)piperidin-4-yl)-2-isopropoxy-5-methylphenyl)amino)-5-(trifluoromethyl)pyridin-4-yl)amino)-N-methylbenzamide] | 10 to 20% | 53 to 60% | – | – | –
8 | Cn1cc(-c2cc(S(C)(=O)=O)ccc2OCc2ccc(C3CCC(=O)NC3=O)c(F)c2)c2cc[nH]c2c1=O (centres unmarked) [GT-04640, 3-(2-fluoro-4-((2-(6-methyl-7-oxo-6,7-dihydro-1H-pyrrolo[2,3-c]pyridin-4-yl)-4-(methylsulfonyl)phenoxy)methyl)phenyl)piperidine-2,6-dione] | 60 to 80% | 80 to 100% | – | – | –
9 | Cn1cc(-c2cc(S(C)(=O)=O)ccc2OCc2ccc(N3CCC(=O)NC3=O)cc2)c2cc[nH]c2c1=O [GT-04645, 1-(4-((2-(6-methyl-7-oxo-6,7-dihydro-1H-pyrrolo[2,3-c]pyridin-4-yl)-4-(methylsulfonyl)phenoxy)methyl)phenyl)dihydropyrimidine-2,4(1H,3H)-dione] | 20 to 30% | 53 to 60% | – | – | –
10 | O=C1CCN(c2ccc(CN3CCN(C4CCN(c5ccc([C@@H]6c7ccc(O)cc7CC[C@@H]6c6ccccc6)cc5)CC4)CC3)cc2F)C(=O)N1 [GT-04738, 1-(2-fluoro-4-((4-(1-(4-((1R,2S)-6-hydroxy-2-phenyl-1,2,3,4-tetrahydronaphthalen-1-yl)phenyl)piperidin-4-yl)piperazin-1-yl)methyl)phenyl)dihydropyr imidine-2,4(1H,3H)-dione] | – | – | 1 to 1.9 µM | – | –
11 | CC(C)(O)c1cc2nn(C3CCN(Cc4cncc(N5CCC(=O)NC5=O)c4)CC3)cc2cc1NC(=O)c1cccc(C(F)(F)F)n1 [GT-07540, N-(2-(1-((5-(2,4-dioxotetrahydropyrimidin-1(2H)-yl)pyridin-3-yl)methyl)piperidin-4-yl)-6-(2-hydroxypropan-2-yl)-2H-indazol-5-yl)-6-(trifluoromethyl)picolinamide] | 30 to 40% | 53 to 60% | – | – | –

Continued, in another order:

Row | inhibition at 0.5 µM [1] | inhibition at 2 µM [2] | IC50 (Table II-1, CRBN binding) | SMILES | Inhibition rate (%) at 0.5µM [1] | Inhibition rate (%) at 2 µM [2]
12 | 30 to 40% | 60 to 80% | – | O=C1CCN(c2cncc(CN3CCC(n4cc(NC(=O)c5cnn6ccc(N7CCOCC7)nc56)c(C(F)F)n4)CC3)c2)C(=O)N1 [GT-07766, N-(3-(difluoromethyl)-1-(1-((5-(2,4-dioxotetrahydropyrimidin-1(2H)-yl)pyridin-3-yl)methyl)piperidin-4-yl)-1H-pyrazol-4-yl)-5-morpholinopyrazolo[1,5-a]pyrimidine-3-carboxamide] | – | –
13 | 20 to 30% | 53 to 60% | – | [2H]C1([2H])N(CC[C@H](CSc2ccccc2)Nc2ccc(S(=O)(=O)NC(=O)c3ccc(N4CCN(CC5=C(c6ccc(Cl)cc6)CCC(C)(C)C5)CC4)cc3)cc2S(=O)(=O)C(F)(F)F)C([2H])([2H])C([2H])([2H])N(Cc2ccc(C3CCC(=O)NC3=O)cc2)C1([2H])[2H] (stereo partly drawn) [GT-07906, 4-(4-((4'-chloro-4,4-dimethyl-3,4,5,6-tetrahydro-[1,1'-biphenyl]-2-yl)methyl)piperazin-1-yl)-N-((4-(((2R)-4-(4-(4-(2,6-dioxopiperidin-3-yl)benzyl)piperazin-1-yl-2,2,3,3,5,5,6,6-d8)-1-(phenylthio)butan-2-yl)amino)-3-((trifluoromethyl)sulfonyl)phenyl)sulfonyl)benzamide] | – | –
14 | 30 to 40% | 30 to 40% | – | CC1(C)CCC(c2ccc(Cl)cc2)=C(CN2CCN(c3ccc(C(=O)NS(=O)(=O)c4ccc(N[C@H](CCN5CC6CCC5CN6Cc5cccc(NC6CCC(=O)NC6=O)c5)CSc5ccccc5)c(S(=O)(=O)C(F)(F)F)c4)cc3)CC2)C1 (stereo partly drawn) [GT-07882, 4-(4-((4'-chloro-4,4-dimethyl-3,4,5,6-tetrahydro-[1,1'-biphenyl]-2-yl)methyl)piperazin-1-yl)-N-((4-(((2R)-4-(5-(3-((2,6-dioxopiperidin-3-yl)amino)benzyl)-2,5-diazabicyclo[2.2.2]octan-2-yl)-1-(phenylthio)butan-2-yl)amino)-3-((trifluoromethyl)sulfonyl)phenyl)sulfonyl)benzamide] | – | –
15 | 40 to 53% | 80 to 100% | – | O=C1CCC(c2ccc(CN3CCC(n4cc(NC(=O)c5cnn6ccc(N7CCOCC7)nc56)c(C(F)F)n4)CC3)nc2)C(=O)N1 (centres unmarked) [GT-07769, N-(3-(difluoromethyl)-1-(1-((5-(2,6-dioxopiperidin-3-yl)pyridin-2-yl)methyl)piperidin-4-yl)-1H-pyrazol-4-yl)-5-morpholinopyrazolo[1,5-a]pyrimidine-3-carboxamide] | – | –
16 | 20 to 30% | 60 to 80% | – | CC(C)Nc1cc(-n2ccc3cc(C#N)cnc32)ncc1C(=O)NC1CCN(Cc2cc(N3CCC(=O)NC3=O)cnc2F)CC1 [GT-07779, 6-(5-cyano-1H-pyrrolo[2,3-b]pyridin-1-yl)-N-(1-((5-(2,4-dioxotetrahydropyrimidin-1(2H)-yl)-2-fluoropyridin-3-yl)methyl)piperidin-4-yl)-4-(isopropylamino)nicotinamide] | – | –
17 | 60 to 80% | 80 to 100% | – | O=C1CCC(c2cnc(F)c(CN3CCC(n4cc(NC(=O)c5cnn6ccc(N7C[C@H]8C[C@@H]7CO8)nc56)c(C(F)F)n4)CC3)c2)C(=O)N1 (stereo partly drawn) [GT-07775, 5-((1R,4R)-2-oxa-5-azabicyclo[2.2.1]heptan-5-yl)-N-(3-(difluoromethyl)-1-(1-((5-(2,6-dioxopiperidin-3-yl)-2-fluoropyridin-3-yl)methyl)piperidin-4-yl)-1H-pyrazol-4-yl)pyrazolo[1,5-a]pyrimidine-3-carboxamide] | – | –
18 | 53 to 60% | 80 to 100% | – | CN(Cc1cc(N2CCC(=O)NC2=O)cnc1F)C1CCN(c2ccc(-c3cc(F)c4c(c3)C(=O)N(C(C(=O)Nc3nccs3)c3ncn5c3CCC5)C4)cc2)CC1 (centres unmarked) [GT-07823, 2-(6,7-dihydro-5H-pyrrolo[1,2-c]imidazol-1-yl)-2-(6-(4-(4-(((5-(2,4-dioxotetrahydropyrimidin-1(2H)-yl)-2-fluoropyridin-3-yl)methyl)(methyl)amino)piperidin-1-yl)phenyl)-4-fluoro-1-oxoisoindolin-2-yl)-N-(thiazol-2-yl)acetamide] | – | –
